In patent US20180214428A1, “3-(1H-INDOL-2-YL)-1H-PYRAZOLO[3,4-B]PYRIDINES AND THERAPEUTIC USES THEREOF” (Samumed, LLC, priority 2015, published 2018):

Columns and labels:
Assay type in all cases: cell-based, human
IL-6 = IL-6 inhibition in LPS-stimulated THP-1 monocytes (HTRF); conditions: Homo sapiens, THP-1 cells; for EC50: 500 ng/mL LPS, 22 h, HTRF IL-6 readout, 10-point dose-response from 10 μM; for inhibition at 10 µM: LPS stimulated, given only where EC50 >10 μM, top concentration 10 μM, read-out: percentage in parentheses beside EC50 >10 (IL-6 inhibition)
Procedure, shortened: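 THP-1 cells serum-reduced (1% FBS, 24 h), then 5000 cells/well preincubated 2 h with compound (10-point 1:3 series from 10 μM, 0.1% DMSO) before 500 ng/mL LPS for 22 h at 37 °C. Secreted IL-6 quantified by HTRF 665/620 ratio; DMSO-normalised duplicates fitted to four-parameter EC50; above 10 μM, % inhibition at 10 μM given.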

SW480 colon cancer cells = experiment: Cell viability assay (CellTiter-Blue) in SW480 colon cancer cells; conditions: Homo sapiens; for EC50: 96 h, four days, CellTiter-Blue; for inhibition at 10 µM: given for EC50 of >10 μM, read-out: percent inhibition at 10 μM
Procedure, shortened: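 SW480 colon cancer cells (~2×10^3/well) exposed to 8-point 1:3 dilutions from 10 μM to 0.0045 μM for four days at 37 °C/5% CO2. Viability read by resazurin (CellTiter-Blue) fluorescence after ~3 h, Ex 560/Em 590 nm. EC50 from non-linear regression; percent inhibition at 10 μM given when EC50 >10 μM.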

[1] = system: Wnt activity (Sp5-Luc reporter gene, SW480 colon carcinoma cells); experiment: Screening assay for Wnt activity: Sp5-Luc reporter gene assay in SW480 cells; conditions: Homo sapiens; for EC50: overnight incubation; for inhibition at 10 µM: given for EC50 of >10 μM, read-out: percent inhibition at 10 μM
Procedure, shortened: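 SW480 cells stably transduced with a luciferase reporter driven by an Sp5 promoter of eight TCF/LEF sites were plated at 4,000 cells/well in 1% FBS medium. They were exposed overnight at 37° C to a 10-point 1:3 dilution series from 10 μM (0.1% DMSO). Luminescence was normalized to DMSO for four-parameter EC50, or percent inhibition at 10 μM.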

| Structure (SMILES) | EC50 (IL-6) | EC50 (SW480 colon cancer cells) | EC50 [1] | inhibition at 10 µM [1] | inhibition at 10 µM (SW480 colon cancer cells) | inhibition at 10 µM (IL-6) |
| --- | --- | --- | --- | --- | --- | --- |
| c1cncc(-c2cnc3[nH]nc(-c4cc5c(-c6cccnc6)cccc5[nH]4)c3c2)c1 [Compound 74, 5-(Pyridin-3-yl)-3-(4-(pyridin-3-yl)-1H-indol-2-yl)-1H-pyrazolo[3,4-b]pyridine] | 0.076 µM | 3.52 µM | 0.57 µM | – | – | – |
| CC(C)(C)C(=O)Nc1cncc(-c2cnc3[nH]nc(-c4cc5c(-c6cccnc6)cccc5[nH]4)c3c2)c1 [Compound 78, N-(5-(3-(4-(Pyridin-3-yl)-1H-indol-2-yl)-1H-pyrazolo[3,4-b]pyridin-5-yl)pyridin-3-yl)pivalamide] | 0.088 µM | 1.73 µM | 0.634 µM | – | – | – |
| CC(C)Nc1cncc(-c2cnc3[nH]nc(-c4cc5c(-c6cccnc6)cccc5[nH]4)c3c2)c1 [Compound 81, N-Isopropyl-5-(3-(4-(pyridin-3-yl)-1H-indol-2-yl)-1H-pyrazolo[3,4-b]pyridin-5-yl)pyridin-3-amine] | 1.56 µM | 3.7 µM | 0.45 µM | – | – | – |
| c1cncc(-c2cccc3[nH]c(-c4n[nH]c5ncc(-c6cncc(CN7CCCCC7)c6)cc45)cc23)c1 [Compound 84, 5-(5-(Piperidin-1-ylmethyl)pyridin-3-yl)-3-(4-(pyridin-3-yl)-1H-indol-2-yl)-1H-pyrazolo[3,4-b]pyridine] | 0.355 µM | 8.47 µM | > 10 µM | 48.5% | – | – |
| O=C(Nc1cncc(-c2cnc3[nH]nc(-c4cc5c(-c6cccnc6)cccc5[nH]4)c3c2)c1)C1CCC1 [Compound 89, N-(5-(3-(4-(Pyridin-3-yl)-1H-indol-2-yl)-1H-pyrazolo[3,4-b]pyridin-5-yl)pyridin-3-yl)cyclobutanecarboxamide] | 0.104 µM | 0.565 µM | 0.23 µM | – | – | – |
| Cc1ccncc1-c1cnc2[nH]nc(-c3cc4c(-c5ccncc5)cccc4[nH]3)c2c1 [Compound 99, 5-(4-Methylpyridin-3-yl)-3-(4-(pyridin-4-yl)-1H-indol-2-yl)-1H-pyrazolo[3,4-b]pyridine] | 0.062 µM | > 10 µM | > 10 µM | 69.3% | 36.8% | – |
| c1cc(-c2ccncc2)c2cc(-c3n[nH]c4ncc(-c5ccncc5)cc34)[nH]c2c1 [Compound 111, 5-(Pyridin-4-yl)-3-(4-(pyridin-4-yl)-1H-indol-2-yl)-1H-pyrazolo[3,4-b]pyridine] | 4.17 µM | > 10 µM | > 10 µM | 17.6% | 36.4% | – |
| O=C(Nc1cncc(-c2cnc3[nH]nc(-c4cc5c(-c6ccncc6)cccc5[nH]4)c3c2)c1)C1CCCCC1 [Compound 115, N-(5-(3-(4-(Pyridin-4-yl)-1H-indol-2-yl)-1H-pyrazolo[3,4-b]pyridin-5-yl)pyridin-3-yl)cyclohexanecarboxamide] | 0.594 µM | > 10 µM | 5.42 µM | – | 24.3% | – |
| c1ccc(CNCc2cncc(-c3cnc4[nH]nc(-c5cc6c(-c7ccncc7)cccc6[nH]5)c4c3)c2)cc1 [Compound 116, N-Benzyl-1-(5-(3-(4-(pyridin-4-yl)-1H-indol-2-yl)-1H-pyrazolo[3,4-b]pyridin-5-yl)pyridin-3-yl)methanamine] | > 10 µM | 3.59 µM | 3.82 µM | – | – | 41.7% |
| FC1(F)CCN(Cc2cncc(-c3cnc4[nH]nc(-c5cc6c(-c7ccncc7)cccc6[nH]5)c4c3)c2)C1 [Compound 118, 5-(5-((3,3-Difluoropyrrolidin-1-yl)methyl)pyridin-3-yl)-3-(4-(pyridin-4-yl)-1H-indol-2-yl)-1H-pyrazolo[3,4-b]pyridine] | 0.607 µM | 4.14 µM | 0.708 µM | – | – | – |
| c1ccc(-c2cnc3[nH]nc(-c4cc5c(-c6ccncc6)cccc5[nH]4)c3c2)nc1 [Compound 120, 5-(Pyridin-2-yl)-3-(4-(pyridin-4-yl)-1H-indol-2-yl)-1H-pyrazolo[3,4-b]pyridine] | 0.103 µM | > 10 µM | > 10 µM | 16.1% | 22.8% | – |
| Nc1cncc(-c2cnc3[nH]nc(-c4cc5c(-c6ccccn6)cccc5[nH]4)c3c2)c1 [Compound 121, 5-(3-(4-(Pyridin-2-yl)-1H-indol-2-yl)-1H-pyrazolo[3,4-b]pyridin-5-yl) pyridin-3-amine] | 0.266 µM | 0.726 µM | 0.174 µM | – | – | – |
| CCNCc1cncc(-c2cnc3[nH]nc(-c4cc5c(-c6ccccn6)cccc5[nH]4)c3c2)c1 [Compound 124, N-((5-(3-(4-(Pyridin-2-yl)-1H-indol-2-yl)-1H-pyrazolo[3,4-b]pyridin-5-yl)pyridin-3-yl)methyl)ethanamine] | 0.194 µM | 4.91 µM | 7.01 µM | – | – | – |
| O=C(Nc1cncc(-c2cnc3[nH]nc(-c4cc5c(-c6ccccn6)cccc5[nH]4)c3c2)c1)c1ccccc1 [Compound 128, N-(5-(3-(4-(Pyridin-2-yl)-1H-indol-2-yl)-1H-pyrazolo[3,4-b]pyridin-5-yl)pyridin-3-yl)benzamide] | 0.009 µM | 0.701 µM | 0.39 µM | – | – | – |
| c1ccc(-c2cccc3[nH]c(-c4n[nH]c5ncc(-c6cncc(CN7CCCC7)c6)cc45)cc23)nc1 [Compound 131, 3-(4-(Pyridin-2-yl)-1H-indol-2-yl)-5-(5-(pyrrolidin-1-ylmethyl)pyridin-3-yl)-1H-pyrazolo[3,4-b]pyridine] | 1.12 µM | 1.19 µM | 4.53 µM | – | – | – |
| CC(C)(C)CC(=O)Nc1cncc(-c2cnc3[nH]nc(-c4cc5c(-c6ccccn6)cccc5[nH]4)c3c2)c1 [Compound 133, 3,3-Dimethyl-N-(5-(3-(4-(pyridin-2-yl)-1H-indol-2-yl)-1H-pyrazolo[3,4-b]pyridin-5-yl)pyridin-3-yl)butanamide] | 0.421 µM | 3.25 µM | 1.01 µM | – | – | – |

Now from value to molecule, other results behind:

| EC50 (IL-6) | EC50 (SW480 colon cancer cells) | EC50 [1] | Structure (SMILES) | inhibition at 10 µM [1] | inhibition at 10 µM (SW480 colon cancer cells) | inhibition at 10 µM (IL-6) |
| --- | --- | --- | --- | --- | --- | --- |
| 1.89 µM | 4.71 µM | 0.385 µM | CCCCC(=O)Nc1cncc(-c2cnc3[nH]nc(-c4cc5c(-c6ccccn6)cccc5[nH]4)c3c2)c1 [Compound 136, N-(5-(3-(4-(Pyridin-2-yl)-1H-indol-2-yl)-1H-pyrazolo[3,4-b]pyridin-5-yl)pyridin-3-yl)pentanamide] | – | – | – |
| > 10 µM | 9.91 µM | 2.02 µM | c1ccc(-c2cccc3[nH]c(-c4n[nH]c5ncc(-c6cncnc6)cc45)cc23)nc1 [Compound 143, 3-(4-(Pyridin-2-yl)-1H-indol-2-yl)-5-(pyrimidin-5-yl)-1H-pyrazolo[3,4-b]pyridine] | – | – | 37.6% |
| 1.46 µM | 2.83 µM | 4.64 µM | CCNCc1cncc(-c2cnc3[nH]nc(-c4cc5c(N6CCCCC6)cccc5[nH]4)c3c2)c1 [Compound 150, N-((5-(3-(4-(Piperidin-1-yl)-1H-indol-2-yl)-1H-pyrazolo[3,4-b]pyridin-5-yl)pyridin-3-yl)methyl)ethanamine] | – | – | – |
| 5.25 µM | 5.26 µM | 0.982 µM | CN(C)c1cncc(-c2cnc3[nH]nc(-c4cc5c(N6CCCCC6)cccc5[nH]4)c3c2)c1 [Compound 151, N,N-Dimethyl-5-(3-(4-(piperidin-1-yl)-1H-indol-2-yl)-1H-pyrazolo[3,4-b]pyridin-5-yl)pyridin-3-amine] | – | – | – |
| > 10 µM | > 10 µM | 3.47 µM | O=C(Nc1cncc(-c2cnc3[nH]nc(-c4cc5c(N6CCCCC6)cccc5[nH]4)c3c2)c1)c1ccccc1 [Compound 155, N-(5-(3-(4-(Piperidin-1-yl)-1H-indol-2-yl)-1H-pyrazolo[3,4-b]pyridin-5-yl)pyridin-3-yl)benzamide] | – | 31% | 21.8% |
| > 10 µM | > 10 µM | 3.39 µM | CCCCC(=O)Nc1cncc(-c2cnc3[nH]nc(-c4cc5c(N6CCCCC6)cccc5[nH]4)c3c2)c1 [Compound 163, N-(5-(3-(4-(Piperidin-1-yl)-1H-indol-2-yl)-1H-pyrazolo[3,4-b]pyridin-5-yl)pyridin-3-yl)pentanamide] | – | 38% | 43.2% |
| > 10 µM | 4.84 µM | 4.47 µM | CC(C)CC(=O)Nc1cncc(-c2cnc3[nH]nc(-c4cc5c(N6CCN(C)CC6)cccc5[nH]4)c3c2)c1 [Compound 202, 3-Methyl-N-(5-(3-(4-(4-methylpiperazin-1-yl)-1H-indol-2-yl)-1H-pyrazolo[3,4-b]pyridin-5-yl)pyridin-3-yl)butanamide] | – | – | 0% |
| 1.21 µM | > 10 µM | 2.71 µM | CC(C)C(=O)Nc1cncc(-c2cnc3[nH]nc(-c4cc5c(N6CCN(C)CC6)cccc5[nH]4)c3c2)c1 [Compound 209, N-(5-(3-(4-(4-Methylpiperazin-1-yl)-1H-indol-2-yl)-1H-pyrazolo[3,4-b]pyridin-5-yl)pyridin-3-yl)isobutyramide] | – | 41.5% | – |
